The source of these data is ChEMBL document CHEMBL5357035, “Previously Uncharacterized Variants, OCF-E-OCF-J, of the Antifungal Occidiofungin Produced by Burkholderia contaminans MS14” (2024).

What all share (assay type): functional
The test system of assay [1] is Candida albicans. The assay is described as follows: Antifungal activity against Candida albicans ATCC3147 assessed as reduction in fungal growth measured after 24 hrs by CLSI protocol based method.
Assay [2] deals with Nakaseomyces glabratus. The assay is described as follows: Antifungal activity against Candida glabrata ATCC2001 assessed as reduction in fungal growth measured after 24 hrs by CLSI protocol based method.
Assay [3] deals with [Candida] auris. The assay can be described thus: Antifungal activity against Candida auris MYA-500 assessed as reduction in fungal growth measured after 24 hrs by CLSI protocol based method. The conditions noted are these: Candidozyma auris.

≈ marks a conversion by molar mass, not a printed value.

Consider `CCCCCCCCCCCCNC(=O)C[C@@H]1NC(=O)CNC(=O)[C@@H](CCN)NC(=O)[C@@H]([C@H](O)c2ccc(O)cc2)NC(=O)[C@H](CO)NC(=O)C[C@@H](C[C@@H](O)[C@@H](O)[C@@H](CCCCCCCCCCC)O[C@H]2OC[C@@H](O)[C@H](O)[C@H]2O)NC(=O)[C@H]([C@H](O)C(N)=O)NC(=O)[C@@H](CO)NC1=O`, for which the minimum inhibitory concentration (MIC) in assay [1] is more than 8 µg/mL; in assay [2], 8 µg/mL (≈ 5.78 µM).
On to `CCCCCCCCCCC[C@@H](O[C@H]1OC[C@@H](O)[C@H](O)[C@H]1O)[C@H](O)[C@H](O)C[C@@H]1CC(=O)N[C@@H](CO)C(=O)N[C@H]([C@H](O)c2ccc(O)cc2)C(=O)N[C@H](CCN)C(=O)NCC(=O)N[C@@H](CC(=O)N(C)C)C(=O)N[C@H](CO)C(=O)N[C@@H]([C@H](O)C(N)=O)C(=O)N1`, for which the minimal inhibitory concentration (MIC) in assay [1] was 1 µg/mL (≈ 0.804 µM); in assay [2], 0.5 µg/mL (≈ 0.402 µM); in assay [3], 0.5 µg/mL (≈ 0.402 µM).
Consider `C#CCCNC(=O)C[C@@H]1NC(=O)CNC(=O)[C@@H](CCN)NC(=O)[C@@H]([C@H](O)c2ccc(O)cc2)NC(=O)[C@H](CO)NC(=O)C[C@@H](C[C@@H](O)[C@@H](O)[C@@H](CCCCCCCCCCC)O[C@H]2OC[C@@H](O)[C@H](O)[C@H]2O)NC(=O)[C@H](CC(N)=O)NC(=O)[C@@H](CO)NC1=O`, for which the MIC in assay [1] and in assay [2] was 0.5 µg/mL (≈ 0.399 µM) throughout.
`CCCCCCCCCCC[C@@H](O[C@H]1OC[C@@H](O)[C@H](O)[C@H]1O)[C@H](O)[C@H](O)C[C@@H]1CC(=O)N[C@@H](CO)C(=O)N[C@H]([C@H](O)c2ccc(O)cc2)C(=O)N[C@H](CCN)C(=O)NCC(=O)N[C@@H](CC(=O)NCC)C(=O)N[C@H](CO)C(=O)N[C@@H](CC(N)=O)C(=O)N1`: the results for the MIC in assay [1], in assay [2] and in assay [3] were 2 µg/mL (≈ 1.63 µM), 2 µg/mL (≈ 1.63 µM) and 1 µg/mL (≈ 0.814 µM), respectively.
In the case of `CCCCCCCCCCC[C@@H](O[C@H]1OC[C@@H](O)[C@H](O)[C@H]1O)[C@H](O)[C@H](O)C[C@@H]1CC(=O)N[C@@H](CO)C(=O)N[C@H]([C@H](O)c2ccc(O)cc2)C(=O)N[C@H](CCN)C(=O)NCC(=O)N[C@@H](CC(N)=O)C(=O)N[C@H](CO)C(=O)N[C@@H](CC(N)=O)C(=O)N1`, the minimal inhibitory concentration (MIC) came to 0.125 µg/mL (≈ 0.104 µM) in assay [1], 0.25 µg/mL (≈ 0.208 µM) in assay [2] and 0.25 µg/mL (≈ 0.208 µM) in assay [3].
For the molecule `CCCCCCCCCCC[C@@H](O[C@H]1OC[C@@H](O)[C@H](O)[C@H]1O)[C@H](O)[C@H](O)C[C@@H]1CC(=O)N[C@@H](CO)C(=O)N[C@H]([C@H](O)c2ccc(O)cc2)C(=O)N[C@H](CCN)C(=O)NCC(=O)N[C@@H](CC(=O)O)C(=O)N[C@H](CO)C(=O)N[C@@H](CC(N)=O)C(=O)N1`, the minimum inhibitory concentration (MIC) in assay [1] turned out to be 2 µg/mL (≈ 1.66 µM); in assay [2], 2 µg/mL (≈ 1.66 µM); in assay [3] it was 1 µg/mL (≈ 0.832 µM).
As to `CCCCCCCCCCC[C@@H](O[C@H]1OC[C@@H](O)[C@H](O)[C@H]1O)[C@H](O)[C@H](O)C[C@@H]1CC(=O)N[C@@H](CO)C(=O)N[C@H]([C@H](O)c2ccc(O)cc2)C(=O)N[C@H](CCN)C(=O)NCC(=O)N[C@@H](CC(=O)NC)C(=O)N[C@H](CO)C(=O)N[C@@H]([C@H](O)C(N)=O)C(=O)N1`, the minimal inhibitory concentration (MIC) in assay [1], in assay [2] and in assay [3] was 0.5 µg/mL (≈ 0.406 µM) in each case.
As for `CCCCCCCCCCCCNC(=O)C[C@@H]1NC(=O)CNC(=O)[C@@H](CCN)NC(=O)[C@@H]([C@H](O)c2ccc(O)cc2)NC(=O)[C@H](CO)NC(=O)C[C@@H](C[C@@H](O)[C@@H](O)[C@@H](CCCCCCCCCCC)O[C@H]2OC[C@@H](O)[C@H](O)[C@H]2O)NC(=O)[C@H](CC(N)=O)NC(=O)[C@@H](CO)NC1=O`, the MIC in assay [1] is more than 8 µg/mL; in assay [2], 8 µg/mL (≈ 5.85 µM).
For the molecule `C#CCCNC(=O)C[C@@H]1NC(=O)CNC(=O)[C@@H](CCN)NC(=O)[C@@H]([C@H](O)c2ccc(O)cc2)NC(=O)[C@H](CO)NC(=O)C[C@@H](C[C@@H](O)[C@@H](O)[C@@H](CCCCCCCCCCC)O[C@H]2OC[C@@H](O)[C@H](O)[C@H]2O)NC(=O)[C@H]([C@H](O)C(N)=O)NC(=O)[C@@H](CO)NC1=O`, the MIC in assay [1] and in assay [2] was 0.5 µg/mL (≈ 0.394 µM) each time.
For the molecule `CCCCCCCCCCC[C@@H](O[C@H]1OC[C@@H](O)[C@H](O)[C@H]1O)[C@H](O)[C@H](O)C[C@@H]1CC(=O)N[C@@H](CO)C(=O)N[C@H]([C@H](O)c2ccc(O)cc2)C(=O)N[C@H](CCN)C(=O)NCC(=O)N[C@@H](CC(=O)NCCC)C(=O)N[C@H](CO)C(=O)N[C@@H]([C@H](O)C(N)=O)C(=O)N1`, the MIC in assay [1] was determined as 0.5 µg/mL (≈ 0.397 µM); in assay [2], 0.5 µg/mL (≈ 0.397 µM); in assay [3], 1 µg/mL (≈ 0.795 µM).
`CCCCCCCCCCC[C@@H](O[C@H]1OC[C@@H](O)[C@H](O)[C@H]1O)[C@H](O)[C@H](O)C[C@@H]1CC(=O)N[C@@H](CO)C(=O)N[C@H]([C@H](O)c2ccc(O)cc2)C(=O)N[C@H](CCN)C(=O)NCC(=O)N[C@@H](CC(N)=O)C(=O)N[C@H](CO)C(=O)N[C@@H]([C@H](O)C(N)=O)C(=O)N1`: the minimum inhibitory concentration (MIC) in assay [1] worked out at 0.125 µg/mL (≈ 0.103 µM); in assay [2], 0.25 µg/mL (≈ 0.206 µM); in assay [3], 0.25 µg/mL (≈ 0.206 µM).
Regarding `CCCCCCCCCCC[C@@H](O[C@H]1OC[C@@H](O)[C@H](O)[C@H]1O)[C@H](O)[C@H](O)C[C@@H]1CC(=O)N[C@@H](CO)C(=O)N[C@H]([C@H](O)c2ccc(O)cc2)C(=O)N[C@H](CCN)C(=O)NCC(=O)N[C@@H](CC(=O)O)C(=O)N[C@H](CO)C(=O)N[C@@H]([C@H](O)C(N)=O)C(=O)N1`, the MIC in assay [1] is 2 µg/mL (≈ 1.64 µM); in assay [2] it was 2 µg/mL (≈ 1.64 µM); in assay [3], 1 µg/mL (≈ 0.821 µM).
For `CCCCCCCCCCC[C@@H](O[C@H]1OC[C@@H](O)[C@H](O)[C@H]1O)[C@H](O)[C@H](O)C[C@@H]1CC(=O)N[C@@H](CO)C(=O)N[C@H]([C@H](O)c2ccc(O)cc2)C(=O)N[C@H](CCN)C(=O)NCC(=O)N[C@@H](CC(=O)NCC)C(=O)N[C@H](CO)C(=O)N[C@@H]([C@H](O)C(N)=O)C(=O)N1`, the minimum inhibitory concentration (MIC) in assay [1] came out at 2 µg/mL (≈ 1.61 µM); in assay [2] it was 2 µg/mL (≈ 1.61 µM); in assay [3] it was 1 µg/mL (≈ 0.804 µM).
For the molecule `CCCCCCCCCCC[C@@H](O[C@H]1OC[C@@H](O)[C@H](O)[C@H]1O)[C@H](O)[C@H](O)C[C@@H]1CC(=O)N[C@@H](CO)C(=O)N[C@H]([C@H](O)c2ccc(O)cc2)C(=O)N[C@H](CCN)C(=O)NCC(=O)N[C@@H](CC(=O)N(C)C)C(=O)N[C@H](CO)C(=O)N[C@@H](CC(N)=O)C(=O)N1`, the MIC was found to be 1 µg/mL (≈ 0.814 µM) in assay [1], 0.5 µg/mL (≈ 0.407 µM) in assay [2] and 0.5 µg/mL (≈ 0.407 µM) in assay [3].
As to `CCCCCCCCCCC[C@@H](O[C@H]1OC[C@@H](O)[C@H](O)[C@H]1O)[C@H](O)[C@H](O)C[C@@H]1CC(=O)N[C@@H](CO)C(=O)N[C@H]([C@H](O)c2ccc(O)cc2)C(=O)N[C@H](CCN)C(=O)NCC(=O)N[C@@H](CC(=O)NC)C(=O)N[C@H](CO)C(=O)N[C@@H](CC(N)=O)C(=O)N1`, the minimal inhibitory concentration (MIC) in assay [1], in assay [2] and in assay [3] was 0.5 µg/mL (≈ 0.412 µM) throughout.
`CCCCCCCCCCC[C@@H](O[C@H]1OC[C@@H](O)[C@H](O)[C@H]1O)[C@H](O)[C@H](O)C[C@@H]1CC(=O)N[C@@H](CO)C(=O)N[C@H]([C@H](O)c2ccc(O)cc2)C(=O)N[C@H](CCN)C(=O)NCC(=O)N[C@@H](CC(=O)NCCC)C(=O)N[C@H](CO)C(=O)N[C@@H](CC(N)=O)C(=O)N1`: the MIC in assay [1] came out at 0.5 µg/mL (≈ 0.402 µM); in assay [2], 0.5 µg/mL (≈ 0.402 µM); in assay [3] it was 1 µg/mL (≈ 0.805 µM).
